We go through 7 compounds from patent US20100009935A1, “RESISTANCE-REPELLENT […] INHIBITORS” (priority 2002, published 2010).

Molecules are shown by their SMILES. Where two headings read alike, the source gives them in different places. Where only a bound is given, the exact number is not on record here.

Common to all, as to type: cell-based
Assay [1] deals with HIV-2EHO. Put plainly: Drug sensitivity of HIV-2EHO in MT-2 cells, MTT assay. The settings on record: HT-2 (footnote: MT-2 cells), day 7, read-out: MEAN IC50 (μM) ± SDs. Here is the method:
(§1) The sensitivities of HIV-1LAI, HIV-1Ba-L, HIV-2EHO and the primary HIV-1 isolates against various drugs were determined as previously described with minor modifications (Shiraska et al., Proc. Natl. Acad. Sci. USA, 92, 2398-2402 (1995)).
(Tetrazolium assays rely on reduction of a dye to a coloured formazan, in cell work by metabolically active cells.)

Assay [2] has as its system HIV-1Ba-L. Nature of the assay: microbe, parasite or virus in culture. To be noted: Human immunodeficiency virus 1, 168 h, PBNC (PHA-PBMC), p24 production, day 7, read-out: MEAN IC50 (μM) ± SDs. Here is the method: as §1
The subject of assay [3] is HIV-1LAI. Put plainly: microbe, parasite or virus in culture. To be noted: day 7, read-out: MEAN IC50 (μM) ± SDs. Here is the method: as §1
Assay [4] has as its system HIV-1 clinical isolate 4. Put plainly: PI sensitivity of PI-resistant clinical isolate 4 in PHA-PBMC, p24. To be noted: for IC50: isolate 4: L10I, V11I, T12E, I15V, L19I, B41K, H46L, L63P, A71T, V82A, L90M, PHA-PBMC, p24.
Assay [5] concerns HIV-1 clinical isolate 6. Put plainly: PI sensitivity of PI-resistant clinical isolate 6 in PHA-PBMC, p24. To be noted: for IC50: Human immunodeficiency virus 1, isolate 6: L10I, K14R, B41K, H46L, I54V, L63P, A71V, V82A, L90M, I93L, PHA-PBMC, p24.
In assay [6] the test system is HIV-1ERS104pre (wild-type clinical strain). Nature of the assay: PI sensitivity of wild-type clinical isolate in PHA-PBMC, p24.
The subject of assay [7] is HIV-1UIC-P62. Put plainly: PI sensitivity of compound 1-selected HIV-1UIC-P62 in MT-2 cells, MTT assay. To be noted: HIV-1UIC-P62 (L10F, A28S, M46I, I50V, A71V, N88D), day 7.
The subject of assay [8] is highly cross-resistant HIV-1 strains derived from AIDS patients. The settings on record: for antiviral activity against patient isolates with multiple mutations compared with wild type HIV strains (in words): multidrug resistant patient isolates.
Assay [9] has as its system HIV-1NL4-3. The settings on record: for IC50: Human immunodeficiency virus 1, MT2, 168 h, HIV-1NL4-3 (wild type), MT-2 cells, MTT assay, day 7.
Assay [10] has as its system HIV-1 clinical isolate 1. Nature of the assay: PI sensitivity of PI-resistant clinical isolate 1 in PHA-PBMC, p24. The settings on record: for IC50: Human immunodeficiency virus 1, isolate 1: L10I, K14R, L33I, N36I, H46I, F53L, K55R, I62V, L63P, A71V, G73S, V82A, L90M, I93L, PHA-PBMC, p24.
Assay [11] relates to HIV-1 clinical isolate 8. Put plainly: PI sensitivity of PI-resistant clinical isolate 8 in PHA-PBMC, p24. The settings on record: for IC50: isolate 8: L10R, H37D, N46I, I62V, L63P, A71V, G73S, V77I, V82T, L90M, I93L, PHA-PBMC, p24.
Assay [12] has as its system HIV-1APV-P30. Nature of the assay: PI sensitivity of APV-selected HIV-1APV-P30 in MT-2 cells, MTT assay.
The subject of assay [13] is HIV-1 clinical isolate 7. Nature of the assay: PI sensitivity of PI-resistant clinical isolate 7 in PHA-PBMC, p24. To be noted: for IC50: Human immunodeficiency virus 1, isolate 7: L10I, L24I, L33F, E35D, H36I, H37S, N46L, I54V, R57K, I62V, L63P, A71V, G73S, V82A, PHA-PBMC, p24.
For assay [14], the system named is HIV-1 clinical isolate 2. Put plainly: PI sensitivity of PI-resistant clinical isolate 2 in PHA-PBMC, p24. The settings on record: for IC50: isolate 2: L10I, I15V, K20R, N36I, H46L, I54V, K55R, I62V, L63P, K70D, V82A, L89N, PHA-PBMC, p24.
Assay [15] relates to HIV-1 clinical isolate 3. Put plainly: PI sensitivity of PI-resistant clinical isolate 3 in PHA-PBMC, p24. The settings on record: for IC50: isolate 3: L10I, I15V, E35D, N37E, K45R, I54V, L63P, A71V, V82I, L90N, I93L, C95F, PHA-PBMC, p24.
Assay [16] has as its system HIV-1 clinical isolate 5. Put plainly: PI sensitivity of PI-resistant clinical isolate 5 in PHA-PBMC, p24. The settings on record: for IC50: isolate 5: L10I, K43T, N46L, I54L, L63P, A71T, V82A, L90N, D92K, PHA-PBMC, p24.
Where [17] appears, read: Human immunodeficiency virus 2, MT2, 168 h.
Where [18] appears, read: Human immunodeficiency virus 1, 168 h, PBMC (PHA-PBMC), p24 production.
Where [19] appears, read: Human immunodeficiency virus 1, MT2, 168 h, HT-2 (footnote: MT-2 cells), MTT assay.
Where [20] appears, read: Human immunodeficiency virus 1, read-out: IC50 μM.
Where [21] appears, read: Human immunodeficiency virus 1, MT2, 168 h.

As a reminder, the IC50 is the point on the concentration scale where inhibition reaches its midpoint. With `OC[C@@H]1CC[C@H](n2cnc3c(O)ncnc32)O1` [ddI, 2′,3′-dideoxyinosine], the IC50 came to 2.8 ± 0.6 µM in [1] (setting [17]), 1.5 ± 1.1 µM in assay [2], 0.62 ± 0.02 µM in [3] (setting [18]) and 3.4 ± 0.2 µM in assay [3] (setting [19]).

On to `CC(C)c1nc(CN(C)C(=O)N[C@H](C(=O)N[C@@H](Cc2ccccc2)C[C@H](O)[C@H](Cc2ccccc2)NC(=O)OCc2cncs2)C(C)C)cs1` [RTV, Ritonavir], for which the concentration for half-maximal inhibition (IC50) in assay [4] (Human immunodeficiency virus 1) was above 1000 nM; in assay [5], above 1000 nM; in assay [6] (setting [20]), 0.044 µM; in [7] (setting [21]), 55 nM; in [9], 38 nM; in assay [1] (setting [17]) it was 0.35 ± 0.025 µM. The IC50 in assay [10], in [11] (Human immunodeficiency virus 1), in [12] (setting [21]), in assay [13], in [14] (Human immunodeficiency virus 1) and in [15] (Human immunodeficiency virus 1) was above 1000 nM each time. The IC50 is above 1000 nM in assay [16] (Human immunodeficiency virus 1), 0.038 ± 0.02 µM in [2], 0.04 ± 0.008 µM in assay [3] (setting [18]) and 0.041 ± 0.005 µM in [3] (setting [19]). Further, the “FOLD CHANGE of IC50” value is reported as “(>23) fold” in [4] (isolate 4 compared to HIV-1wt (HIV-1ERS104pre)); “(>23) fold” in assay [5] (isolate 6 compared to HIV-1wt (HIV-1ERS104pre)); “(1) fold” in assay [6] (wild type HIV-1ERS104pre, reference (=1)); “(1) fold” in assay [9] (HIV-1NL4-3, reference (=1)); “(>23) fold” in assay [10] (isolate 1 compared to HIV-1wt (HIV-1ERS104pre)); “(>23) fold” in assay [11] (isolate 8 compared to HIV-1wt (HIV-1ERS104pre)). For the same compound, the “FOLD CHANGE of IC50” value in [12] (HIV-1APV-P30 compared to HIV-1NL4-3 (wild type)) was “(>26) fold”; in assay [13] (isolate 7 compared to HIV-1wt (HIV-1ERS104pre)), “(>23) fold”; in assay [14] (isolate 2 compared to HIV-1wt (HIV-1ERS104pre)), “(>23) fold”; in [15] (isolate 3 compared to HIV-1wt (HIV-1ERS104pre)) it was “(>23) fold”; in assay [16] (isolate 5 compared to HIV-1wt (HIV-1ERS104pre)), “(>23) fold”. The “antiviral activity against patient isolates with multiple mutations compared with wild type HIV strains (in words)” value in assay [8] is “dramatically less potent”.

As to `Cc1cn([C@H]2C[C@H](N=[N+]=[N-])[C@@H](CO)O2)c(=O)[nH]c1=O` [AZT, 3′-azido-2′,3′-dideoxythymidine], the IC50 in [1] (setting [17]) was determined as 0.003 ± 0.001 µM; in assay [2] it was 0.011 ± 0.007 µM; in [3] (setting [18]), 0.003 ± 0.0002 µM; in assay [3] (setting [19]) it was 0.024 ± 0.003 µM.

Turning to `COc1ccc(S(=O)(=O)N(CC(C)C)C[C@@H](O)[C@H](Cc2ccccc2)NC(=O)O[C@H]2CO[C@H]3OCC[C@H]32)cc1` [UIC-94003], the 50% inhibitory concentration (IC50) in assay [4] is 1.6 nM; in assay [6] (wild type HIV-1ERS104pre (L63P), PHA-PBMC, p24, read-out: IC50), 0.0007 µM; in assay [7] it was 21 nM; in [8] (eight highly PI-resistant clinical isolates, PHA-PBMC, read-out: IC50 values, range over all eight isolates) it was 0.5 to 5.5 nM; in assay [1] it was 0.0005 ± 7e-05 µM; in assay [11], 1 nM. Further, the IC50 in [12] (HIV-1APV-P30 (L10F, V32I, M46I, I54M, A71V, I84V), MT-2 cells, MTT assay, day 7, read-out: IC50) was found to be 29 nM; in assay [14], 1.3 nM; in assay [15], 1 nM; in [16], 2.4 nM. In addition, the “antiviral activity against patient isolates with multiple mutations compared with wild type HIV strains (in words)” value in [8] is given as “equivalent”.

Take `Nc1ccn([C@@H]2CS[C@H](CO)O2)c(=O)n1` [Compound 3TC, LAMIVUDINE]: the IC50 in assay [1] (setting [17]) stood at 0.4 ± 0.25 µM; in [2], 0.054 ± 0.046 µM; in [3] (setting [18]) it was 0.021 ± 0.018 µM; in [3] (setting [19]) it was 0.66 ± 0.01 µM.

For `CC(C)CN(C[C@@H](O)[C@H](Cc1ccccc1)NC(=O)O[C@H]1CCOC1)S(=O)(=O)c1ccc(N)cc1` [APV, Amprenavir], the IC50 in assay [4] (Human immunodeficiency virus 1) came to 310 nM; in assay [5], 160 nM; in [6] (setting [20]), 0.025 µM; in assay [7] (setting [21]), 830 nM; in assay [9] it was 42 nM; in [1] (setting [17]) it was 0.53 ± 0.03 µM. For the same compound, the half-inhibitory concentration (IC50) in assay [10] is 270 nM; in assay [11] (Human immunodeficiency virus 1), 150 nM; in assay [12] (setting [21]), above 1000 nM; in assay [13], 490 nM; in assay [14] (Human immunodeficiency virus 1), 280 nM; in assay [15] (Human immunodeficiency virus 1) it was 260 nM. The concentration for half-maximal inhibition (IC50) in assay [16] (Human immunodeficiency virus 1) worked out at 670 nM; in assay [2], 0.023 ± 0.009 µM; in assay [3] (setting [18]), 0.017 ± 0.003 µM; in [3] (setting [19]), 0.041 ± 0.01 µM. In assay [8], the “antiviral activity against patient isolates with multiple mutations compared with wild type HIV strains (in words)” value is recorded as “much less effective”.

For `Cc1c(O)cccc1C(=O)N[C@@H](CSc1ccccc1)[C@H](O)CN1C[C@H]2CCCC[C@H]2C[C@H]1C(=O)NC(C)(C)C` [NFV, Nelfinavir], the IC50 is 90 nM in assay [4] (Human immunodeficiency virus 1); above 1000 nM in assay [5]; 0.023 µM in [6] (setting [20]); 110 nM in assay [7] (setting [21]); 23 nM in [9]; 0.02 ± 0.01 µM in [1] (setting [17]). The IC50 in assay [10] was above 1000 nM; in [11] (Human immunodeficiency virus 1), above 1000 nM; in assay [12] (setting [21]), above 1000 nM; in assay [13], above 1000 nM; in assay [14] (Human immunodeficiency virus 1), 330 nM; in [15] (Human immunodeficiency virus 1) it was above 1000 nM. The IC50 in [16] (Human immunodeficiency virus 1) was determined as 410 nM; in assay [3] (setting [18]), 0.009 ± 0.0003 µM; in assay [3] (setting [19]), 0.005 ± 0.002 µM. Moreover, in assay [8], the “antiviral activity against patient isolates with multiple mutations compared with wild type HIV strains (in words)” value is recorded as “dramatically less potent”.
